The source of these data is US20220064167A1, “IMIDAZO-PYRAZOLE CARBOXAMIDE DERIVATIVES AS ANTICANCER AGENTS AND THE SYNTHESIS THEREOF” (AVIDIN KFT., priority 2018, published 2022).

In data set [1] the test system is HL-60 cells. Briefly: resazurin viability assay, Example 103 (FIG. 1). The format is cell-based. The conditions noted are these: Homo sapiens, 72 h incubation, 20.000 cells/well, read-out: half-inhibitory concentration (IC50) on viability of HL-60 cells. As for the experimental part:
The human primary fibroblasts (6000 cells/well) and Hl60 cells (20.000 cells/well) were seeded into 96-well plates (Corning Life Sciences) in media. Fibroblasts were cultured overnight before treatment. Effects of compounds described in Example 22, 60 and 83 were examined in concentrations of 1 μM, 250 nM, 62.5 nM, 15.6 nM, 3.9 nM and 0.9 nM in 100 μl after 72 h incubation. Resazurin reagent was prepared and used as described in Example 1.
(§1) Viability was calculated with relation to untreated control cells and blank wells containing media without cells. IC50 values (50% inhibiting concentration) were calculated by GraphPad Prism® 5.
(In general: Resazurin is reduced to fluorescent resorufin, in cell work by metabolically active cells.)

The subject of data set [2] is human primary fibroblasts. Kind of data set: resazurin viability assay on primary fibroblasts, Example 103 (FIG. 1). It is filed as cell-based. The conditions noted are these: 72 h incubation, applied concentration range 1.6 nM-5 μM.
Text: To obtain primary human fibroblasts healthy volunteers (age 18-60 years) were enrolled into the study. The punch biopsies were taken from healthy subjects from the breast area undergoing plastic surgery. Primary fibroblasts were obtained from the skin by enzymatic digestion according to a standard protocol. Skin specimens were first washed in Salsol A solution (Human Rt, Gödöllö, Hungary) supplemented with 2% antibiotic/antimycotic solution (Sigma-Aldrich). Skin samples were then cut into narrow strips and incubated in Dispase solution (Roche Diagnostics, Mannheim, Germany) overnight at 4° C. The epidermis was subsequently separated from the dermis. Fibroblasts were obtained by incubating the dermis in Digestion Mix solution (Collagenase, Hyaluronidase and Deoxyribonuclease) for 2h at 37° C. Cell suspensions were filtered through a 100 μm nylon mesh (BD Falcon, San Jose, Calif., USA) and cells were pelleted by centrifugation. Fibroblasts were grown in low glucose DMEM medium containing 5% FBS, 1% antibiotic/antimycotic (PAA, Pasching, Austria) and 1% L-glutamine solution (PAA). Fibroblasts were cultured at 37° C. and 5% CO2 in humidified conditions. Depending on the cell growth, the medium was changed every 2-4 days and cells were passaged at 80% of confluence.
The human primary fibroblasts (6000 cells/well) and Hl60 cells (20.000 cells/well) were seeded into 96-well plates (Corning Life Sciences) in media. Fibroblasts were cultured overnight before treatment. […] Resazurin reagent was prepared and used as described in Example 1.
as §1

The test system of the next data set is Bcl-xl in HL-60 cells. Kind of data set: flow cytometry of Bcl-xl bright cells (FIG. 2A). It is filed as cell-based, human. The conditions noted are these: HL-60, 40 nM, 200 nM and 1 μM, 24 h. How it is done:
(§2) Human promyelocytic leukemia HL60 Cells (500,000/well) were plated in 24-well tissue culture plates (Corning Life Sciences) in RPMI 10% FCS (Gibco) and were treated with the compounds described in Example 60 and 83 at 40 nM, 200 nM and 1 μM concentrations in 500 μl media. After 24 h incubation time cells with the corresponding supernatants were harvested and centrifuged down (2000 rpm, 5 min).
(§3) Pellets were resuspended and fixed in 3.5% PBS buffered formaldehyde (Molar Chemicals) for 10 minutes. Cells were washed with FACS-buffer (2% FCS, (Gibco) in PBS), centrifuged down (2000 rpm, 5 min). Cells were permeabilized in Permeability buffer (1% FCS, 0.1% saponin (Sigma-Aldrich) in PBS pH 7.4) for 5 minutes. Cells were washed with FACS buffer (2% FCS, (Gibco) in PBS), centrifuged (2000 rpm, 5 min). The following primary antibodies were used: Bcl-xl-Alexa 488, (Cell Signaling, cat. numb. 2767S), dilution 1:75, 24 h; pAkt-Alexa Fluor 488, (Ser473), (Cell Signaling, cat. numb, 4071), dilution 1:50, 24 or 72h; After incubation for 1h at 4° C. samples were washed two times with FACS buffer. […] In order to calculate the signal to noise ratio mean fluorescent intensity (MFI) was calculated by the following equation: =POWER(10; (Medianstained−Median unstained, untreated)/Chd), where Chd means 256, the number of channels per decade (Fajka-Boja et al. 2002; Sharrow 2001) in Microsoft Excel. […]
Background: A flow cytometer gives signals particle by particle.

Data set [3] has as its system HL-60 cells. Kind of data set: Annexin V / propidium iodide apoptosis assay (FIG. 4). The format is cell-based, human. The conditions noted are these: HL-60, 40 nM, 200 nM and 1 μM, 24 h. How it is done:
Cells (200,000/well) were plated in 24-well tissue culture plates (Corning Life Sciences) and treated with the compounds described in Example 60 and 83 at 40 nM, 200 nM and 1 μM concentrations in 500 μl media. After 24 h cells were harvested with the corresponding supernatant and centrifuged down (2000 rpm, 5 min). Pellets were resuspended in Annexin V binding buffer (0.01 M HEPES, 0.14 M NaCl and 2.5 mM CaCl2). Annexin V-Alexa Fluor® 488 (Life Technologies, 2.5:100) was added to the cells, which were then kept for 15 min in the dark at room temperature. Before the acquisition propidium iodide (10 μg/ml, Sigma-Aldrich) was added in Annexin V binding buffer to dilute Annexin V-Alexa Fluor® 488 5×. Cells (20.000 events) were analyzed on a FACSCalibur flow cytometer using CellQuest software (Becton Dickinson). The percentage of the FL1 (530/30 nm filter, Annexin V-Alexa Fluor® 488) positive and FL3 (670 nm filter, propidium iodide) negative early apoptotic cells and FL1 positive and FL3 positive late apoptotic cells were determined. The total apoptotic population included both early and late apoptotic cells. Column charts were created by GraphPad Prism® 5. Results are depicted in FIG. 4. […] We could detect AnnexinV^+/PI^− early and AnnexinV^+/PI^+ late apoptotic cell populations after 24 h of treatment.

In data set [4] the test system is active caspase-3 in HL-60 cells. Kind of data set: caspase-3 activation by flow cytometric immunofluorescence (FIG. 5). It is filed as cell-based, human. The conditions noted are these: HL-60, FIG. 5. How it is done:
as §2, §3

As for `CC(C)(C)Nc1c(C(C)(C)C)[nH]c2c(C(=O)Nc3ccc(F)cc3)cnn12` [Example 60, 2-(Tert-butyl)-N-(4-fluorophenyl)-3-((tert-butyl-2-yl)amino)-1H-imidazo[1,2-b]pyrazole-7-carboxamide], the IC50 with HL-60 cells [1] was found to be 210 nM. Moreover, the “decrease in viability of human primary fibroblasts” value in data set [2] is given as “Significant decrease in viability was not apparent”. For the same compound, the “percentage of the Bcl-xl bright cells” value with Bcl-xl in HL-60 cells is given as “increase”. Moreover, the “AnnexinV+/PI- early and AnnexinV+/PI+ late apoptotic cell populations” value in the data set on HL-60 cells [3] is listed as “accompanied by apoptosis”. Further, in data set [4], the “percentage of active caspase-3 positive cells” value was “increased”.

For `CC(C)(C)Nc1c(C(C)(C)C)[nH]c2c(C(=O)Nc3ccc(N)cc3)cnn12` [Example 83, N-(4-Aminophenyl)-2-(tert-butyl)-3-(tert-butylamino)-1H-imidazo[1,2-b]pyrazole-7-carboxamide], the IC50 in the data set on HL-60 cells [1] was found to be 50 nM. For the same compound, the “decrease in viability of human primary fibroblasts” value in data set [2] is on record as “Significant decrease in viability was not apparent”. Further, in the data set on Bcl-xl in HL-60 cells, the “percentage of the Bcl-xl bright cells” value is reported as “increase”. Further, the “AnnexinV+/PI- early and AnnexinV+/PI+ late apoptotic cell populations” value in the data set with HL-60 cells [3] was “accompanied by apoptosis”. For the same compound, in data set [4], the “percentage of active caspase-3 positive cells” value was “increased”.
